# Assay results taken from ChEMBL document CHEMBL1145234, “A new synthetic analogue of thymidine, 7-(3-bromo-phenoxy)-thymidine, inhibits the proliferation of tumor cells” (Bioorg Med Chem Lett, 2005).
# pIC50: −log10 of the molar value.
# Test system: HeLa
# Assay: Inhibitory concentration against HeLa cell proliferation after 72 hours of incubation; NA means not active
# Type: functional, cell-based, Homo sapiens
# Conditions: not given; call rule not given here
row,IC50,SMILES
1,Not Active,O=c1ccn([C@H]2C[C@H](O)[C@@H](CO)O2)c(=O)[nH]1 [DEOXYURIDINE]

# Test system: HeLa
# Assay: Inhibitory concentration against HeLa cell proliferation after 72 hours of incubation
# Type: functional, cell-based
# Conditions: Homo sapiens
row,SMILES,pIC50
1,CCOc1ccc(OCc2cn([C@H]3C[C@H](O)[C@@H](CO)O3)c(=O)[nH]c2=O)cc1,3.60
2,O=c1[nH]c(=O)n([C@H]2C[C@H](O)[C@@H](CO)O2)cc1COc1ccccc1,3.70
3,O=c1[nH]c(=O)n([C@H]2C[C@H](O)[C@@H](CO)O2)cc1COc1ccc([N+](=O)[O-])cc1,3.60
4,O=c1[nH]c(=O)n([C@H]2C[C@H](O)[C@@H](CO)O2)cc1CSc1cccc2ccccc12,3.30
5,COc1ccc(OCc2cn([C@H]3C[C@H](O)[C@@H](CO)O3)c(=O)[nH]c2=O)cc1,3.70
6,Cc1ccc(OCc2cn([C@H]3C[C@H](O)[C@@H](CO)O3)c(=O)[nH]c2=O)cc1,3.60
7,Cc1cn([C@H]2C[C@H](O)[C@@H](CO)O2)c(=O)[nH]c1=O [DOXRIBTIMINE],2.40

# Continued, values first:
row,pIC50,SMILES
1,4.60,O=c1[nH]c(=O)n([C@H]2C[C@H](O)[C@@H](CO)O2)cc1COc1ccc(Br)cc1
2,4.30,O=c1[nH]c(=O)n([C@H]2C[C@H](O)[C@@H](CO)O2)cc1COc1cccc2ccccc12
3,4.30,O=c1[nH]c(=O)n([C@H]2C[C@H](O)[C@@H](CO)O2)cc1COc1ccc2ccccc2c1
4,4.82,O=c1[nH]c(=O)n([C@H]2C[C@H](O)[C@@H](CO)O2)cc1COc1cccc(Br)c1
